{"source": "patent US20220202906A1", "about": "“VASOACTIVE INTESTINAL PEPTIDE (VIP) FOR USE IN THE TREATMENT OF DRUG-INDUCED PNEUMONITIS” (ADVITA L[…], priority 2019, published 2022)", "key": {"[1]": {"test": "Aerosol characterisation with M-Neb dose+ mesh nebulizer MN-300/8 and COPLEY next generation impactor (NGI)", "assay_type": "physicochemical", "conditions": "VIP dissolved in 0.9% NaCl", "text": "Using the M-Neb® dose+ mesh nebulizer MN-300/8 and the respective mouthpiece, VIP has been tested with the COPLEY next generation impactor (NGI). The mass median aerodynamic diameter (MMD) of VIP dissolved in 0.9% NaCl was 3.3-3.5 μm per emitted particle."}, "[2]": {"test": "Off-label inhaled VIP therapy in a patient with checkpoint inhibitor-induced pneumonitis", "assay_type": "in vivo, human", "protocol": "A patient, who was treated with checkpoint inhibitors, developed CIP and steroid treatment led to insufficient control. Because of missing other approved therapeutic options the patient was treated off-label with inhaled VIP therapy initiated at a dose of 4×70 μg/ml per day dosage (280 μg per day with overnight break)."}, "[3]": {"conditions": "human, in vivo"}, "[4]": {"test": "Blood level of VIP after aerosol administration", "assay_type": "in vivo", "text": "This is especially unexpected as the treatment with aerosols is normally regarded to be only efficient if inhaled noxes are the cause of the pulmonary defects. In the context of the present invention, a systemic substance is, however, the cause of drug-induced pneumonitis (such as CIP) and therefore topic administration is not expected to have any great effect."}, "[5]": {"conditions": "sarcoidosis, inhaled aerosolized VIP; cited from earlier work"}, "[6]": {"conditions": "50 μg four times daily by inhalation, 28 days; cited from earlier work"}, "[7]": {"conditions": "CIP patient, inhaled VIP 280 μg per day"}}, "data": [{"smiles": "CC[C@H](C)[C@H](NC(=O)[C@H](CO)NC(=O)[C@H](CC(N)=O)NC(=O)[C@H](CC(C)C)NC(=O)[C@H](Cc1ccc(O)cc1)NC(=O)[C@H](CCCCN)NC(=O)[C@H](CCCCN)NC(=O)[C@@H](NC(=O)[C@H](C)NC(=O)[C@H](CCSC)NC(=O)[C@H](CCC(N)=O)NC(=O)[C@H](CCCCN)NC(=O)[C@H](CCCNC(=N)N)NC(=O)[C@H](CC(C)C)NC(=O)[C@H](CCCNC(=N)N)NC(=O)[C@@H](NC(=O)[C@H](Cc1ccc(O)cc1)NC(=O)[C@H](CC(N)=O)NC(=O)[C@H](CC(=O)O)NC(=O)[C@@H](NC(=O)[C@H](Cc1ccccc1)NC(=O)[C@@H](NC(=O)[C@H](C)NC(=O)[C@H](CC(=O)O)NC(=O)[C@H](CO)NC(=O)[C@@H](N)Cc1c[nH]cn1)C(C)C)[C@@H](C)O)[C@@H](C)O)C(C)C)C(=O)N[C@@H](CC(C)C)C(=O)N[C@@H](CC(N)=O)C(N)=O", "note": "[VIP, Vasoactive intestinal peptide]", "values": [{"measurement": "dose delivered at the mouthpiece", "setting": "[1]; M-Neb dose+ MN-300/8", "value": "90.2 % of the tested dosages"}, {"measurement": "particles with a diameter", "setting": "[1]; M-Neb dose+ MN-300/8", "value": 85.7, "unit": "%"}, {"measurement": "mass median aerodynamic diameter (MMD) per emitted particle", "setting": "[1]; M-Neb dose+ MN-300/8 with mouthpiece", "value": "3.3-3.5 μm"}, {"measurement": "alveolar inflammation as measured by bronchoalveolar lavage", "setting": "[2]; [7]", "value": "dampened by an increase of regulatory T-cell"}, {"measurement": "patient's general health", "setting": "[2]; [7]", "value": "ameliorated"}, {"measurement": "radiological alterations (e.g. consolidations)", "setting": "[2]; [7]", "value": "diminished"}, {"measurement": "lung function", "setting": "[2]; CIP patient, inhaled VIP 4×70 μg per day (280 μg per day)", "value": "normalized within six months of treatment"}, {"measurement": "side effects on the patient's immune system", "setting": "[2]; VIP inhalation in CIP", "value": "does not suffer from severe side effects on the patient's immune system"}, {"measurement": "clinical outcome", "setting": "[3]", "value": "clinical amelioration"}, {"measurement": "blood level of VIP", "setting": "[4]", "value": "does not lead to an elevated blood level of VIP"}, {"measurement": "TNF-release", "setting": "[5]", "value": "decrease of TNF-release"}, {"measurement": "regulatory T-cells", "setting": "[5]", "value": "increase of regulatory T-cells"}, {"measurement": "symptoms", "setting": "[5]", "value": "symptomatic relief"}, {"measurement": "tolerability / adverse events", "setting": "[6]", "value": "well tolerated without serious adverse events"}]}]}
